Results taken from US7566789B2, “Benzimidazole derivatives” (Merck Patent GmbH, priority 2002, dated 2009).

Tests used:
[1] = target: factor Xa (Homo sapiens, UniProt P00742); assay: Inhibition of factor Xa (FXa-IC50); format: biochemical
Description: The inhibition of factor Xa by the compounds according to the invention and the measurement of the anticoagulant and antithrombotic activity can be determined by conventional in-vitro or in-vivo methods. A suitable method is described, for example, by J. Hauptmann et al. in Thrombosis and Haemostasis 1990, 63, 220-223.
The inhibition of factor Xa can be measured, for example by the method of T. Hara et al. in Thromb. Haemostas. 1994, 71, 314-319.

[2] = target: TF/FVIIa (Homo sapiens, UniProt P08709); assay: Inhibition of TF/factor VIIa (TF/FVIIa-IC50); format: biochemical
Description: The inhibition of factor VIIa by the compounds according to the invention and the measurement of the anticoagulant and antithrombotic activity can be determined by conventional in-vitro or in-vivo methods. A conventional method for the measurement of the inhibition of factor VIIa is described, for example, by H. F. Ronning et al. in Thrombosis Research 1996, 84, 73-81.

TF/FVIIa, sequence (P08709 213-466 limits assumed): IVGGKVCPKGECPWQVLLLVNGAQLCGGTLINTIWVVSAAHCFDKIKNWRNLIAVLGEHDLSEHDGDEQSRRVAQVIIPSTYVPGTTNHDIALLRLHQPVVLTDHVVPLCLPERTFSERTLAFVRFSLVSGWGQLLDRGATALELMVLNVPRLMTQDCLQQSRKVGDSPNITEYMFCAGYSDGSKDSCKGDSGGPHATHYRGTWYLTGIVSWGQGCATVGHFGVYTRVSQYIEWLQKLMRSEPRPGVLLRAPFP
TF/FVIIa, sequence (P08709 61-212 limits assumed): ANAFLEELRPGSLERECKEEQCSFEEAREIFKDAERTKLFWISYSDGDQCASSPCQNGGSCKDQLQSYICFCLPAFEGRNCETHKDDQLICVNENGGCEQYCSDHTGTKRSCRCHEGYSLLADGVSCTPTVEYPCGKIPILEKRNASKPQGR
TF/FVIIa, sequence (P13726 33-295 partner): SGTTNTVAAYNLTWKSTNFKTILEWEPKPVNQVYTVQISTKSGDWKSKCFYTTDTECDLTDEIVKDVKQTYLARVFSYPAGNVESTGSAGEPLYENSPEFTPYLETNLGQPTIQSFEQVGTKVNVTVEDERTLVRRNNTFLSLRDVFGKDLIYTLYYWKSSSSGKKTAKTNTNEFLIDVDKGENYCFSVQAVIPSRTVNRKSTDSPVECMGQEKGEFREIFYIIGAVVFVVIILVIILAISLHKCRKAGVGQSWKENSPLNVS
factor Xa, sequence (P00742 235-488 limits assumed): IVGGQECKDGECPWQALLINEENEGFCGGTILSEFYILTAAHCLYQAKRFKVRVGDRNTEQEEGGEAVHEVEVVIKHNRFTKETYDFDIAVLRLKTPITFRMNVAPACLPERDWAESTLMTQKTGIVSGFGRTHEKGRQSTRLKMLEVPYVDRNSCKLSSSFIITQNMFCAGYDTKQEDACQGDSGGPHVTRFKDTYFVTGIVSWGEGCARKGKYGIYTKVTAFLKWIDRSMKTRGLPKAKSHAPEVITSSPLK
factor Xa, sequence (P00742 41-179 limits assumed): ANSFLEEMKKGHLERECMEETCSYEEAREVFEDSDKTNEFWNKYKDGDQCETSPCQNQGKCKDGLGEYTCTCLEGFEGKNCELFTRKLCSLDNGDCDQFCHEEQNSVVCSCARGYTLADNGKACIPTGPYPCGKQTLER

For `O=C(Cc1ccc2[nH]c(-c3ccc(Cl)s3)nc2c1)Nc1ccc(N2CCOCC2=O)cc1` [AA, 2-[2-(5-chlorothiophen-2-yl)-1H-benzimidazol-5-yl]-N-[4-(3-oxomorpholin-4-yl)phenyl]acetamide], the melting point was 200 °C (dec.), the IC50 [1] was 230 nM and the IC50 [2] was 190 nM.
For `Cc1cc(NC(=O)Cc2ccc3[nH]c(-c4ccc(Cl)s4)nc3c2)ccc1N1CCOCC1=O` [AB, 2-[2-(5-chlorothiophen-2-yl)-1H-benzimidazol-5-yl]-N-[3-methyl-4-(3-oxomorpholin-4-yl)phenyl]acetamide], the IC50 [1] was 120 nM and the IC50 [2] was 130 nM.
With `O=C(Cc1ccc2[nH]c(-c3ccc(Cl)s3)nc2c1)Nc1ccc(-n2ccccc2=O)cc1` [AC, 2-[2-(5-chlorothiophen-2-yl)-1H-benzimidazol-5-yl]-N-[4-(2-oxopyridin-1-yl)phenyl]acetamide] the IC50 [1] was 180 nM and the IC50 [2] was 130 nM.
